Data on 3 compounds can be found in ChEMBL document CHEMBL1155253, “Synthesis, antitumor evaluation, molecular modeling and quantitative structure-activity relationship (QSAR) of some novel arylazopyrazolodiazine and triazine analogs” (Bioorg Med Chem, 2009).

Common to all, as to format: organism-based, Ehrlich
Holding throughout (parameters): route oral

Data set [1] has as its system Mus musculus. Put plainly: Toxicity in Swiss albino mouse bearing mouse EAC cells assessed as mean survival time at 50 to 250 mg/kg/day, po. The conditions noted are these: in vivo.
In data set [2] the test system is Mus musculus. Put plainly: Toxicity in Swiss albino mouse bearing mouse EAC cells assessed as increase in body weight at 50 to 250 mg/kg/day, po. The conditions noted are these: in vivo.
The test system of data set [3] is Mus musculus. Put plainly: Toxicity in Swiss albino mouse bearing mouse EAC cells assessed as hemoglobin level at 50 to 250 mg/kg/day, po after 14 days postimplantation. The conditions noted are these: in vivo, 336 h.
The subject of data set [4] is Mus musculus. As to the kind of experiment: Toxicity in Swiss albino mouse bearing mouse EAC cells assessed as hematocrit level at 50 to 250 mg/kg/day, po after 14 days postimplantation. Conditions: in vivo, 336 h.
Data set [5] concerns Mus musculus. As to the kind of experiment: Toxicity in Swiss albino mouse bearing mouse EAC cells assessed as WBC count at 50 to 250 mg/kg/day, po after 14 days postimplantation. The conditions noted are these: in vivo, 336 h.

Regarding `Nc1nn2c(c1/N=N/c1ccc(/N=N/c3ccccc3)cc1)NC(=O)CC2`, the MST in the data set on Mus musculus [1] came out at 17.1 days. Also, the Activity entry was “Toxic” with Mus musculus [2], 10.9 g/dL in the data set with Mus musculus [3], 43% in the data set with Mus musculus [4] and 12.8 in the data set on Mus musculus [5].
Take `Nc1n[nH]c(/N=N/c2c(O)ccc3ccccc23)c1/N=N/c1ccc(/N=N/c2ccccc2)cc1`: the MST in the data set on Mus musculus [1] came to 17.8 days. Also, the Activity result in the data set with Mus musculus [2] was “Toxic”; in the data set on Mus musculus [3] it was 10.5 g/dL; with Mus musculus [4], 43.7%; in the data set with Mus musculus [5] it was 11.5.
With `O=c1[nH]cc(F)c(=O)[nH]1` [FLUOROURACIL], the MST in the data set on Mus musculus [1] came out at 16.7 days. The Activity entry was “Toxic” in the data set with Mus musculus [2], 10 g/dL in the data set on Mus musculus [3], 42.3% in the data set on Mus musculus [4] and 13.8 in the data set with Mus musculus [5].
